Assay results as given in patent US10441630B2, “Topical formulations and uses thereof” (OCULAR TECHNOLOGIES SARL, priority 2012, dated 2019).

Legend:
[1] = Physical appearance, melt method, HCO-40 and compound 1001, at 25° C. and 4° C.; assay type: physicochemical; conditions: 1001 4 wt %; for Allow to reach room temperature (25° C.): brought back from 4° C.; for Mixture physical appearance at room temperature (4° C.): placed at 4° C.; for Resuspend in water: water at 40° C.
Description: The preparation of MNF encapsulating compound 1001 (neat oil) can be divided into two steps. As an example for the development of 3.0 wt % HCO-40 or HCO-60 MNF encapsulating 0.4% compound 1001 is described below. […] To this melt polymer compound 1001 (˜20 mg), thermostated at 40° C., was added and mixed for homogenous distribution. […] (in refrigerator).
This aqueous solution was allowed to reach room temperature, under natural conditions. The pH of the solution was adjusted to 5.5 and the volume was made up with 2× phosphate buffer saline (pH 5.5) containing octoxynol-40 (0.01 wt %) and PVP-K-90 (1.2 wt %). The formulation was filtered through 0.2 μm nylon filter to remove any foreign material and obtain a clear homogenous aqueous RX-1001 formulation.
The results obtained for physical appearance of the mixture, different phases, at different temperatures and appearance of final formulation are summarized in Tables 3a-3c.

[2] = Weight percent of drug loaded into MNF (entrapment, RP-HPLC); assay type: physicochemical; conditions: HCO-60 4 wt %, Octoxynol-40 0.01 wt %
Description: To determine the entrapment efficiency of the formulation, all the prepared formulations were subjected to entrapment efficiency test. Briefly, formulations were vortex mixed for homogeneity and 1 mL was transferred to a fresh (1.5 mL) eppendorf tube. Each formulation was lyophilized to obtain a solid at the bottom of eppendorf tube. The obtained solid was suspended in 1 mL of organic solvent (diethyl ether) to generate reverse micelles and release the drug into the external organic solvent. The organic solvent was evaporated overnight in speed vacuum. The resultant reversed micelles were resuspended in 1 mL of 2-propanol (dilution factor was taken into account) and further diluted to determine the concentration of compound 1001 entrapped in each micellar preparation with HPLC. The entrapment efficiency of the formulation was calculated with the following formula (wherein MNF=Mixed Nanomicellar Formulation): […]
In vitro analysis of compound 1001 was performed by a reversed phase high performance liquid chromatography (RP-HPLC) method with a Shimadzu HPLC pump (Shimadzu, Shimadzu Scientific instruments, Columbia, Md.), Alcott autosampler (model 718 AL), Shimadzu UV/Visible detector (Shimadzu, SPD-20A/20AV, USA), ODS column (5 μm, 150×4.6 mm) thermostated at 40°±1 C and Hewlett Packard HPLC integrator (Hewlett Packard, Palo Alto, Calif.). The mobile phase was comprised of methanol (MeOH), water and trifluoroacetic acid (TFA) (70:30:0.05% v/v) which was set at a flow rate of 0.5 mL/min. Detection wavelength was set at 272 nm. The sample tray temperature was maintained at 4° C. Calibration curve (0.5 to 5 μg/mL) for compound 1001 was prepared by making appropriate dilutions from the stock solution in 2-propanol. An injection volume of 10 μl was injected into the HPLC column for analysis. All the standards and samples prepared were stored at 4° C. before and during the analysis.
Mixed nanomicellar formulation encapsulating compound 1001 was prepared by solvent evaporation method in two steps: 1) Preparation of basic formulation and 2) rehydration. In step one, compound 1001, HCO-60 and octoxynol-40 were dissolved separately in 0.3 mL of ethyl acetate. These three solutions were mixed together in 15-mL centrifuge tube. The resultant mixture was vortexed to obtain a homogenous solution. Ethyl acetate solvent was removed with speed vacuum to obtain a solid thin film. The residue was kept overnight under high vacuum at room temperature to remove residual organic solvent. In step two, the resultant thin film was hydrated with 1 mL of double distilled deionized water by vortexing the solution. The rehydrated formulation was suspended in 2× phosphate buffer solution, (pH 6.5). It was filtered through 0.2 μm nylon filter membrane to remove the unentrapped drug aggregates and other foreign particulates. The entrapment of compound 1001 was determined by RP-HPLC following disruption of the micelles and solubilization of 1001 in the diluent (2-propanol) as described below
Weight percent of drug loaded into MNF was determined following the method for entrapment efficiency. Size and polydispersity index of the formulations was determined with Malvern zetasizer as described above. The formulations appear clear and have small size and narrow size distribution.

C#CC[C@@H](O)/C=C/C=C/C#C[C@@H](O)CCCC(=O)OC(C)C [compound 1001]
Final formulation ([1]; HCO-40 0.5 wt %): Emulsion
Mixture physical appearance at room temperature (25° C.) ([1]; HCO-40 0.5 wt %): Viscous yellow
Allow to reach room temperature (25° C.) ([1]; HCO-40 0.5 wt %): Viscous liquid
Mixture physical appearance at room temperature (4° C.) ([1]; HCO-40 0.5 wt %): Viscous liquid
Resuspend in water ([1]; HCO-40 0.5 wt %): Emulsion
Final formulation ([1]; HCO-40 0.75 wt %): Emulsion
Mixture physical appearance at room temperature (25° C.) ([1]; HCO-40 0.75 wt %): Viscous yellow
Allow to reach room temperature (25° C.) ([1]; HCO-40 0.75 wt %): Viscous liquid
Mixture physical appearance at room temperature (4° C.) ([1]; HCO-40 0.75 wt %): Viscous liquid
Resuspend in water ([1]; HCO-40 0.75 wt %): Emulsion
Final formulation ([1]; HCO-40 1.0 wt %): Emulsion
Mixture physical appearance at room temperature (25° C.) ([1]; HCO-40 1.0 wt %): Viscous yellow
Allow to reach room temperature (25° C.) ([1]; HCO-40 1.0 wt %): Viscous liquid
Mixture physical appearance at room temperature (4° C.) ([1]; HCO-40 1.0 wt %): Viscous liquid
Resuspend in water ([1]; HCO-40 1.0 wt %): Emulsion
Final formulation ([1]; HCO-40 1.25 wt %): Emulsion
Mixture physical appearance at room temperature (25° C.) ([1]; HCO-40 1.25 wt %): Viscous yellow
Allow to reach room temperature (25° C.) ([1]; HCO-40 1.25 wt %): Viscous liquid
Mixture physical appearance at room temperature (4° C.) ([1]; HCO-40 1.25 wt %): Viscous liquid
Resuspend in water ([1]; HCO-40 1.25 wt %): Emulsion
Final formulation ([1]; HCO-40 1.5 wt %): Emulsion
Mixture physical appearance at room temperature (25° C.) ([1]; HCO-40 1.5 wt %): Viscous yellow
Allow to reach room temperature (25° C.) ([1]; HCO-40 1.5 wt %): Viscous liquid
Mixture physical appearance at room temperature (4° C.) ([1]; HCO-40 1.5 wt %): Yellow waxy
Resuspend in water ([1]; HCO-40 1.5 wt %): Emulsion
Final formulation ([1]; HCO-40 1.75 wt %): Emulsion
Mixture physical appearance at room temperature (25° C.) ([1]; HCO-40 1.75 wt %): Viscous yellow
Allow to reach room temperature (25° C.) ([1]; HCO-40 1.75 wt %): Viscous liquid
Mixture physical appearance at room temperature (4° C.) ([1]; HCO-40 1.75 wt %): Yellow waxy
Resuspend in water ([1]; HCO-40 1.75 wt %): Emulsion
Final formulation ([1]; HCO-40 2.0 wt %): Emulsion
Mixture physical appearance at room temperature (25° C.) ([1]; HCO-40 2.0 wt %): Viscous yellow
Allow to reach room temperature (25° C.) ([1]; HCO-40 2.0 wt %): Viscous liquid
Mixture physical appearance at room temperature (4° C.) ([1]; HCO-40 2.0 wt %): Yellow waxy
Resuspend in water ([1]; HCO-40 2.0 wt %): Emulsion
Final formulation ([1]; HCO-40 2.25 wt %): Emulsion
Mixture physical appearance at room temperature (25° C.) ([1]; HCO-40 2.25 wt %): Viscous yellow
Allow to reach room temperature (25° C.) ([1]; HCO-40 2.25 wt %): Viscous liquid
Mixture physical appearance at room temperature (4° C.) ([1]; HCO-40 2.25 wt %): Yellow waxy
Resuspend in water ([1]; HCO-40 2.25 wt %): Emulsion
Final formulation ([1]; HCO-40 2.5 wt %): Yellow color
Mixture physical appearance at room temperature (25° C.) ([1]; HCO-40 2.5 wt %): Viscous yellow
Allow to reach room temperature (25° C.) ([1]; HCO-40 2.5 wt %): Viscous liquid
Mixture physical appearance at room temperature (4° C.) ([1]; HCO-40 2.5 wt %): Yellow waxy
Resuspend in water ([1]; HCO-40 2.5 wt %): Yellow
Final formulation ([1]; HCO-40 2.75 wt %): Very pale yellow
Mixture physical appearance at room temperature (25° C.) ([1]; HCO-40 2.75 wt %): Viscous yellow
Allow to reach room temperature (25° C.) ([1]; HCO-40 2.75 wt %): Viscous liquid
Mixture physical appearance at room temperature (4° C.) ([1]; HCO-40 2.75 wt %): Pale yellow waxy
Resuspend in water ([1]; HCO-40 2.75 wt %): Pale yellow
Final formulation ([1]; HCO-40 3.0 wt %): Clear solution
Mixture physical appearance at room temperature (25° C.) ([1]; HCO-40 3.0 wt %): Viscous yellow
Allow to reach room temperature (25° C.) ([1]; HCO-40 3.0 wt %): Viscous liquid
Mixture physical appearance at room temperature (4° C.) ([1]; HCO-40 3.0 wt %): Pale yellow solid
Resuspend in water ([1]; HCO-40 3.0 wt %): Clear
Final formulation ([1]; HCO-40 4.0 wt %): Clear solution
Mixture physical appearance at room temperature (25° C.) ([1]; HCO-40 4.0 wt %): Viscous yellow
Allow to reach room temperature (25° C.) ([1]; HCO-40 4.0 wt %): Pale yellow
Mixture physical appearance at room temperature (4° C.) ([1]; HCO-40 4.0 wt %): Pale yellow waxy
Resuspend in water ([1]; HCO-40 4.0 wt %): Clear
1001 (loaded in mixed micelles) wt % ([2]; 1001 initially added 0.035 wt %): 0.033 wt %
1001 (loaded in mixed micelles) wt % ([2]; 1001 initially added 0.070 wt %): 0.065 wt %
1001 (loaded in mixed micelles) wt % ([2]; 1001 initially added 0.095 wt %): 0.084 wt %
1001 (loaded in mixed micelles) wt % ([2]; 1001 initially added 0.120 wt %): 0.11 wt %
1001 (loaded in mixed micelles) wt % ([2]; 1001 initially added 0.250 wt %): 0.26 wt %
1001 (loaded in mixed micelles) wt % ([2]; 1001 initially added 0.300 wt %): 0.32 wt %
1001 (loaded in mixed micelles) wt % ([2]; 1001 initially added 0.400 wt %): 0.45 wt %
